Results taken from ChEMBL document CHEMBL2163339, “Discovery of potent inhibitors of human and mouse fatty acid amide hydrolases” (J Med Chem, 2012).
Active and inactive are the calls of the source.

Assays:
[1] = biological target: T1, Fatty-acid amide hydrolase 1 (Mus musculus) (UniProt O08914); experiment: Reversible inhibition of mouse FAAH isolated from brain homogenate using [3H-ethanolamine]AEA as substrate incubated for 20 mins prior to substrate addition measured after 18 hrs by […] method
T1 sequence (whole entry): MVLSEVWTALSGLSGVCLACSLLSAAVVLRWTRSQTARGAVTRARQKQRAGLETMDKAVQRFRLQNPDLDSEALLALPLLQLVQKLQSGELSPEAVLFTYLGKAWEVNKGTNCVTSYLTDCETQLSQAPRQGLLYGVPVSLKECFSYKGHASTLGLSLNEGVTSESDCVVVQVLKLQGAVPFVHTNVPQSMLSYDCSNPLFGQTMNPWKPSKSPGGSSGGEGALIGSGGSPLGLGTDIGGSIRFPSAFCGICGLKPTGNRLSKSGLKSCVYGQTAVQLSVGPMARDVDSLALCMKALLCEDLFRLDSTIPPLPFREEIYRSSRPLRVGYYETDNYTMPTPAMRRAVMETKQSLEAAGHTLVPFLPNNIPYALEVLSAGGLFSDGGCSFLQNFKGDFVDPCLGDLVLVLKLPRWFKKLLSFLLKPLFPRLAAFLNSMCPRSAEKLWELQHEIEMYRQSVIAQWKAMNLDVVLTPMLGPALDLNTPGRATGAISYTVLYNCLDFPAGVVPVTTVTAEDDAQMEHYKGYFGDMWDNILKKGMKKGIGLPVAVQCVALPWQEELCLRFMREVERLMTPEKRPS

[2] = biological target: T2, Fatty-acid amide hydrolase 1 (Mus musculus, UniProt O08914); experiment: Inhibition of mouse FAAH isolated from brain homogenate using [3H-ethanolamine]AEA as substrate incubated for 20 mins prior to substrate addition measured after 15 mins by beta counting analysis
T2 sequence (O08914 whole entry): T1 sequence (whole entry)

Mus musculus [3] = experiment: Anxiolytic activity in mouse at 3 mg/kg, po measured for 5 mins by elevated plus maze test; type: organism-based; design: dose 3 mg/kg, route oral; conditions: in vivo
Mus musculus [4] = experiment: Toxicity against CD1 mouse assessed as limbic/striatal stereotypies at 10 mg/kg, po at 60 mins by Irwin test; type: organism-based; design: dose 10 mg/kg, route oral; conditions: in vivo, 1 h
Rattus norvegicus [5] = experiment: Analgesic activity in rat assessed as increase in paw withdrawal threshold at 10 mg/kg, po; type: functional, organism-based; design: dose 10 mg/kg
Mus musculus [6] = organism: Mus musculus; experiment: Inhibition of DAGL-mediated 2AG synthesis in mouse brain homogenate using […] as substrate incubated for 20 mins prior to substrate addition; type: tissue-based
[7] = biological target: Voltage-gated inwardly rectifying potassium channel KCNH2 (Homo sapiens, UniProt Q12809); experiment: Inhibition of human ERG expressed in CHOK1 cells for 5 mins by automated patch clamp assay; type: cell-based, CHO-K1
Voltage-gated inwardly rectifying potassium channel KCNH2, sequence (Q12809 whole entry): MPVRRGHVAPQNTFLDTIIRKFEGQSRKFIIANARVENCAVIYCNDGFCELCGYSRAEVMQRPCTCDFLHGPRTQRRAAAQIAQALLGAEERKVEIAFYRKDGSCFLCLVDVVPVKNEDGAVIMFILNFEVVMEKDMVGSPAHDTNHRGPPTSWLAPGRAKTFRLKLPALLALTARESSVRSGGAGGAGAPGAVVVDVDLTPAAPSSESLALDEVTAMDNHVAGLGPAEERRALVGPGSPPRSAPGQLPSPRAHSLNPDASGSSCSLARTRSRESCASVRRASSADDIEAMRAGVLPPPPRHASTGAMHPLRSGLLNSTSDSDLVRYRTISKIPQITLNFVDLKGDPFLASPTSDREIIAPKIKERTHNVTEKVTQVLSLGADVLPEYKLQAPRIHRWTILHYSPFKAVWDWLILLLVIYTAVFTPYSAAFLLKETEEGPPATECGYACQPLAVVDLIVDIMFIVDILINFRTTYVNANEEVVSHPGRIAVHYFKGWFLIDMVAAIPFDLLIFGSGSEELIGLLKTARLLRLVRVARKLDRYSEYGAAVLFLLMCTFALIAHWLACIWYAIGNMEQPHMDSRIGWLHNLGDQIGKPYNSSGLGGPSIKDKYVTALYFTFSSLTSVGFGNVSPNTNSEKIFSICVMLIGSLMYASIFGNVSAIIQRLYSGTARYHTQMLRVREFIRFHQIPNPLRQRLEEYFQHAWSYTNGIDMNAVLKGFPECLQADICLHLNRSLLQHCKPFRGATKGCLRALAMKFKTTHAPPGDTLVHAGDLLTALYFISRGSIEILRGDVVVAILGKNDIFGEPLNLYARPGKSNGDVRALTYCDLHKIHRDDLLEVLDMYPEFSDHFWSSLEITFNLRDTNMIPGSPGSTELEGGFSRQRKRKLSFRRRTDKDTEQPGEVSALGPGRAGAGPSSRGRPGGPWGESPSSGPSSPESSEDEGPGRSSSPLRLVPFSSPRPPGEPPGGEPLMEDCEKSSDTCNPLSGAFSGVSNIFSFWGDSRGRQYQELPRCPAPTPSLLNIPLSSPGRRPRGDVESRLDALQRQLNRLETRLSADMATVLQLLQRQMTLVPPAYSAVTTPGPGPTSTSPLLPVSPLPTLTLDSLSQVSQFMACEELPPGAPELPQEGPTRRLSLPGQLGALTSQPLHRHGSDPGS

Mus musculus [8] = experiment: Anxiolytic activity in mouse at 10 mg/kg, po measured for 5 mins by elevated plus maze test; type: organism-based; design: dose 10 mg/kg, route oral; conditions: in vivo
Mus musculus [9] = experiment: Toxicity against CD1 mouse assessed as limbic/striatal stereotypies at 100 mg/kg, po at 240 mins by Irwin test; type: organism-based; design: dose 100 mg/kg, route oral; conditions: in vivo, 4 h
Mus musculus [10] = experiment: Toxicity against CD1 mouse assessed as limbic/striatal stereotypies at 30 mg/kg, po at 240 mins by Irwin test; type: organism-based; design: dose 30 mg/kg, route oral; conditions: in vivo, 4 h
[11] = biological target: T3, Fatty-acid amide hydrolase 1 (Homo sapiens, UniProt O00519); experiment: Inhibition of human recombinant FAAH
T3 sequence (O00519 whole entry): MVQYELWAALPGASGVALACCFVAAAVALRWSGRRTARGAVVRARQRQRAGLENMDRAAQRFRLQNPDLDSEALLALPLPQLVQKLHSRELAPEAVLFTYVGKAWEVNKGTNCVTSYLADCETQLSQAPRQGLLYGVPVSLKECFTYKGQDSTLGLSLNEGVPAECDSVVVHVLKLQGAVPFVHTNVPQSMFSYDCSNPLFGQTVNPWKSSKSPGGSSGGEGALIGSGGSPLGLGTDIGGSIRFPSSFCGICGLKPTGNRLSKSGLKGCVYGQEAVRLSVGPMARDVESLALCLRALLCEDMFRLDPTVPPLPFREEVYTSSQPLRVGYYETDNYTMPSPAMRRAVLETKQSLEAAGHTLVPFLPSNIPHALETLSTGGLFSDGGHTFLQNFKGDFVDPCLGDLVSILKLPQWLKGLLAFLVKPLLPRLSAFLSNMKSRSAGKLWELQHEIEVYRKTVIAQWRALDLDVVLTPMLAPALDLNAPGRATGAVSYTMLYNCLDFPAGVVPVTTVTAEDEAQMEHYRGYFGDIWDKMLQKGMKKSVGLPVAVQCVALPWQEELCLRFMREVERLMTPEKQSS

Mus musculus [12] = experiment: Toxicity against CD1 mouse assessed as limbic/striatal stereotypies at 30 mg/kg, po at 60 mins by Irwin test; type: organism-based; design: dose 30 mg/kg, route oral; conditions: in vivo, 1 h
Mus musculus [13] = experiment: Anxiolytic activity in mouse at 30 mg/kg, po measured for 5 mins by elevated plus maze test; type: organism-based; design: dose 30 mg/kg, route oral; conditions: in vivo
[14] = biological target: Cannabinoid receptor 1 (Mus musculus) (UniProt P47746); experiment: Displacement of [3H]CP55.940 from CB1 receptor in mouse brain fraction; type: tissue-based
Cannabinoid receptor 1 (Mus musculus), sequence (P47746 whole entry): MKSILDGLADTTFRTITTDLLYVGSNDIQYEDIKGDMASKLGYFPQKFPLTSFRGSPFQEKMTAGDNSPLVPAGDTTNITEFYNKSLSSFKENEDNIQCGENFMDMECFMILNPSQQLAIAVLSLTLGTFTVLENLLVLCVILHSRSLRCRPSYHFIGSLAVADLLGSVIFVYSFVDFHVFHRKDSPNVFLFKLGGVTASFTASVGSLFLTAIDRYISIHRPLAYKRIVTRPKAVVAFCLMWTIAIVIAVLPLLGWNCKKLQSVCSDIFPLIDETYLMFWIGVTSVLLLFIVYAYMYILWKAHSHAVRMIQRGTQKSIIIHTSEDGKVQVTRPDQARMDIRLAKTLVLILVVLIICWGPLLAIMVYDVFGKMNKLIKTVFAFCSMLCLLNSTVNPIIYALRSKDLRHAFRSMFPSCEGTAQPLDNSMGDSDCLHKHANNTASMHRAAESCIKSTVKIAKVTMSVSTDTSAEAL

Mus musculus [15] = experiment: Toxicity against CD1 mouse assessed as limbic/striatal stereotypies at 10 mg/kg, po at 240 mins by Irwin test; type: organism-based; design: dose 10 mg/kg, route oral; conditions: in vivo, 4 h
Mus musculus [16] = experiment: Toxicity against CD1 mouse assessed as limbic/striatal stereotypies at 100 mg/kg, po at 60 mins by Irwin test; type: organism-based; design: dose 100 mg/kg, route oral; conditions: in vivo, 1 h
[17] = biological target: Cannabinoid receptor 2 (Mus musculus) (UniProt P47936); experiment: Displacement of [3H]CP55.940 from CB2 receptor in mouse spleen fraction; type: tissue-based
Cannabinoid receptor 2 (Mus musculus), sequence (P47936 whole entry): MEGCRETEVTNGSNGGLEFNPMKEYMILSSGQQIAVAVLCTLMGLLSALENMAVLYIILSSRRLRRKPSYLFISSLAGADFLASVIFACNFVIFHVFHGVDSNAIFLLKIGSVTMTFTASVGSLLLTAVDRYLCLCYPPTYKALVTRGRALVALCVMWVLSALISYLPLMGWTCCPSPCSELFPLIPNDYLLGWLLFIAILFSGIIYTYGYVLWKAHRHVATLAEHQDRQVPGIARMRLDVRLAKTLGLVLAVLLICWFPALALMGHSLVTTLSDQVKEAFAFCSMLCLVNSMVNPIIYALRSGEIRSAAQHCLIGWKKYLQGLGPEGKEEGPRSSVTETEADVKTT

[18] = biological target: Transient receptor potential cation channel subfamily V member 1 (Mus musculus) (UniProt Q704Y3); experiment: Displacement of [3H]RTX from TRPV1 receptor in mouse brain fraction; type: tissue-based
Transient receptor potential cation channel subfamily V member 1 (Mus musculus), sequence (Q704Y3 whole entry): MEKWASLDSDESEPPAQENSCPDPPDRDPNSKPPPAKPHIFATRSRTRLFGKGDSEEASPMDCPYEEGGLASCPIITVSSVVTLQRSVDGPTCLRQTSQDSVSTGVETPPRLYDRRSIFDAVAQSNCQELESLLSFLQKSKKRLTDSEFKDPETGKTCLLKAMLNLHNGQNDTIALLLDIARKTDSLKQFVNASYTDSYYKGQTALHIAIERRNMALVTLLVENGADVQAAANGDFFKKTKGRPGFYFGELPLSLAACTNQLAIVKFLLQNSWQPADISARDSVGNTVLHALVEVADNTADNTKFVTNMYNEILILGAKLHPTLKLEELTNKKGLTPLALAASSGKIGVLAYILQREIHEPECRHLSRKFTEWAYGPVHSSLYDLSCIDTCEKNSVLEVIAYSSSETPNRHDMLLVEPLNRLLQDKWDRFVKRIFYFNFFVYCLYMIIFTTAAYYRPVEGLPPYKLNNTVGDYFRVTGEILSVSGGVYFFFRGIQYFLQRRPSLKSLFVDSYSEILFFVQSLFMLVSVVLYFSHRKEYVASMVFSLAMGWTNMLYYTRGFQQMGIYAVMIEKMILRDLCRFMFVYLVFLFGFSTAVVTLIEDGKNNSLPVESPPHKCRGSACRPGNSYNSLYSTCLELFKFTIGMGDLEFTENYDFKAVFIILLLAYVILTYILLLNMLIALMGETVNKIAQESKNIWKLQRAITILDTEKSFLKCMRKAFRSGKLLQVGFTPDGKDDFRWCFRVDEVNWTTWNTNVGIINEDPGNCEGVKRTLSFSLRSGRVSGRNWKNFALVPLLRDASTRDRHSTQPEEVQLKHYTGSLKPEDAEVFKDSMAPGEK

Rattus norvegicus [19] = experiment: Analgesic activity in rat assessed as increase in paw withdrawal threshold at 100 mg/kg, po; type: functional, organism-based; design: dose 100 mg/kg
Rattus norvegicus [20] = experiment: Analgesic activity in rat assessed as increase in paw withdrawal threshold at 30 mg/kg, po; type: functional, organism-based; design: dose 30 mg/kg
[21] = biological target: T4, Monoglyceride lipase (Mus musculus) (UniProt O35678); experiment: Inhibition of MAGL-mediated 2AG hydrolysis in mouse brain homogenate using [3H]2OG as substrate incubated for 20 mins prior to substrate addition; type: tissue-based
T4 sequence (whole entry): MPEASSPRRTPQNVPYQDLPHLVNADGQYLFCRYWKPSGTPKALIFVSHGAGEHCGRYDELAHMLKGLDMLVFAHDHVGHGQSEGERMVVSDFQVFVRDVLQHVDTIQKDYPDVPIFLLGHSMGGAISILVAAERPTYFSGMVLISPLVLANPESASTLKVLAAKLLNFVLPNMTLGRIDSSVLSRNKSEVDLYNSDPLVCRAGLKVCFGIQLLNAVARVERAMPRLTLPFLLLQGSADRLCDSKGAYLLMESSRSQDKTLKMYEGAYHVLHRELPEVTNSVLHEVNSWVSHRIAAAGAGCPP

[22] = biological target: T5, N-acyl-phosphatidylethanolamine-hydrolyzing phospholipase D (Mus musculus) (UniProt Q8BH82); experiment: Inhibition of NAPE-PLD-meidated AEA synthesis in mouse brain homogenate using [3H]NArPE as substrate incubated for 20 mins prior to substrate addition; type: tissue-based
T5 sequence (whole entry): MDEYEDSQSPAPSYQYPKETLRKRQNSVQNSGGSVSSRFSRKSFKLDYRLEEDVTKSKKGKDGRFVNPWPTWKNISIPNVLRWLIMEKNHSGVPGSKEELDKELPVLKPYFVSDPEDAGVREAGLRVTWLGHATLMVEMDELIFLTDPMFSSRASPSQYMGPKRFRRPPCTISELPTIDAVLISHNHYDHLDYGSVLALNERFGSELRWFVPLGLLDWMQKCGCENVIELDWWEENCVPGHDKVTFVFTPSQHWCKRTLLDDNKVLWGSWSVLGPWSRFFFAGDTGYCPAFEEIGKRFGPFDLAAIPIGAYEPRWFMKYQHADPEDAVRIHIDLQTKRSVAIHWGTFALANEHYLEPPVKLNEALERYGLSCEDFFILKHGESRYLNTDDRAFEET

[23] = biological target: T1, Fatty-acid amide hydrolase 1 (Mus musculus); experiment: Non-competitive inhibition of mouse FAAH isolated from brain homogenate using [3H-ethanolamine]AEA as substrate by Lineweaver-Burk plot analysis

NC(=O)c1ccn(-c2cccc(OC(=O)NCCOCCOc3ccc(F)cc3)c2)c1
inhibition [1]: Active
IC50 [2]: 31 nM
Ki [2]: 8 nM

C#CCCCCCCCCCOC(=O)c1ccn(-c2cccc(OC(=O)NC3CCCCC3)c2)c1
IC50 [2]: > 10000 nM

CCCCNC(=O)Oc1cccc(-n2ccc(C(=O)OCCCCCCc3ccccc3)c2)c1
IC50 [2]: > 200 nM

CCCCNC(=O)Oc1cccc(-c2oc(C)cc2C(N)=O)c1
IC50 [2]: 530 nM
Ki [2]: 140 nM

NC(=O)c1ccn(-c2cccc(OC(=O)NCCOCCOc3ccccc3)c2)c1
IC50 [2]: 87 nM
Ki [2]: 23 nM

CCCCNC(=O)Oc1cccc(-c2sc(C)cc2C(N)=O)c1
IC50 [2]: > 200 nM

Cc1cc(C(N)=O)c(-c2cccc(OC(=O)NCCCCCCc3ccccc3)c2)o1
Activity (Mus musculus [3]): Non-toxic
Activity (Mus musculus [4]): Toxic
Activity (Rattus norvegicus [5]): inactive
inhibition (Mus musculus [6]): inactive
IC50 [7]: > 10000 nM
Activity (Mus musculus [8]): Non-toxic
Activity (Mus musculus [9]): Non-toxic
Activity (Mus musculus [10]): Non-toxic
IC50 [11]: 102 nM
Activity (Mus musculus [12]): Toxic
Activity (Mus musculus [13]): Non-toxic
IC50 [2]: 1.7 nM
Ki [2]: 0.49 nM
Activity [14]: inactive
Activity (Mus musculus [15]): Non-toxic
Activity (Mus musculus [16]): Toxic
Activity [17]: inactive
Activity [18]: inactive
Activity (Rattus norvegicus [19]): Active
Activity (Rattus norvegicus [20]): Active
inhibition [21]: inactive
inhibition [22]: inactive

COc1cccc(-c2c(C(=O)NCCCCCCc3ccccc3)cc(C)n2Cc2ccccc2)c1
IC50 [2]: > 200 nM

NC(=O)c1ccn(-c2cccc(OC(=O)NCCCCCCc3ccccc3)c2)c1
Activity (Mus musculus [3]): Non-toxic
Activity (Mus musculus [4]): Toxic
Activity (Rattus norvegicus [5]): inactive
inhibition (Mus musculus [6]): inactive
inhibition [1]: Active
IC50 [7]: > 10000 nM
inhibition [23]: Active
Activity (Mus musculus [8]): Non-toxic
Activity (Mus musculus [9]): Toxic
Activity (Mus musculus [10]): Toxic
Activity (Mus musculus [12]): Toxic
Activity (Mus musculus [13]): Non-toxic
IC50 [2]: 0.6 nM
Ki [2]: 0.16 nM
Activity [14]: inactive
Activity (Mus musculus [15]): Toxic
Activity (Mus musculus [16]): Toxic
Activity [17]: inactive
Activity [18]: inactive
Activity (Rattus norvegicus [19]): Active
Activity (Rattus norvegicus [20]): Active
inhibition [21]: inactive
inhibition [22]: inactive

Cc1cc(C(N)=O)c(-c2cccc(OC(=O)NC3CCCCC3)c2)s1
IC50 [2]: > 200 nM

C#CCCCCCCCCCOC(=O)c1ccn(-c2cccc(OC(=O)NCCCCCCc3ccccc3)c2)c1
IC50 [2]: > 200 nM

NC(=O)c1ccn(-c2cccc(OC(=O)NCCOCCOc3ccc(F)cc3F)c2)c1
inhibition [1]: Active
IC50 [2]: 28 nM
Ki [2]: 7 nM

CCCCNC(=O)Oc1cccc(-c2cc(C(N)=O)c(C)o2)c1
IC50 [2]: > 200 nM

C#CCCCCCCCCCOC(=O)c1ccn(-c2cccc(OC(=O)NCCCC)c2)c1
IC50 [2]: > 70 nM
